For experiment [1], the system named is P. falciparum D6 (CDC/Sierra Leone I, D-6). As to the kind of experiment: In vitro screening protocol I, [3H]-hypoxanthine incorporation, D6. The format is cell-based, Plasmodium falciparum. Conditions: In vitro screening protocol I, P. falciparum D6; for IC50: Plasmodium falciparum, read-out: IC50 D6. The procedure, abridged:
(§1)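 Asexual blood-stage P. falciparum was cultured in human A+ erythrocytes at 37 °C under 5% CO2/5% O2, and growth was measured by [3H]-hypoxanthine incorporation over 72 h total. TM91C235 was prescreened at 25,000, 2,500 and 25 ng/ml in folate-free medium. D-6 and W-2 IC50s came from 11-point two-fold dilutions by logistic fit.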

Experiment [2] deals with Plasmodium falciparum strain W2. As to the kind of experiment: In vitro screening protocol II, [3H] hypoxanthine incorporation IC50 assay, W2. The note with it: P. falciparum W2; for IC50: Plasmodium falciparum. The format is cell-based. The procedure:
(§2) The protocol described here is a modification of the in vitro screening protocol I and the details of the methodology are given below.
(§3) Plasmodium falciparum strains 3D7A and W2.
(§4) The culture medium comprised RPMI 1640 with 25 mM HEPES, sodium bicarbonate and glutamine (GIBCO™ cat. ref.: 52400), supplemented with 10% of pooled human sera AB (Bioreclamation HMSRM-AB)) and HT supplement (0.15 mM hypoxanthine and 24 μM thymidine), (GIBCO™ cat. ref.: 41065). Human sera were decomplemented 30 min. at 56° C., aliquoted and stored frozen at −20° C. until use in this culture medium.
(§5) This culture medium (“complete medium”) was usually prepared fresh just before use and pre-warmed to 37° C.
(§6) Red blood cells AB− stock suspensions were prepared from whole blood bags coming from incomplete blood donation, provided by the Spanish Red Cross (<25 days after sampling). This “whole blood” was aliquoted and stored at 4° C.
(§7) To prepare red blood cells for the assay, the whole blood was centrifuged and washed 3 times with RPMI without serum. The upper phase, containing white blood cells was removed. The washed red blood cells were kept as a 50% suspension in complete medium. The prepared cells were stored at 4° C. and were employed in the assay at any time up to 4 days after preparation.
(§8) Test compounds were dissolved at 2 mg/ml in 100% DMSO on the day of the assay. If necessary, complete dissolution was achieved by gentle heating (the mixture was heated at a temperature <37° C.) and sonication (sonication bath).
(§9) For IC50 determinations, 10 serial 2-fold dilutions were prepared in complete medium in the presence of a constant amount of DMSO. Any obvious signs of insolubility of the stock solutions in 100% DMSO or precipitation when these solutions were diluted in assay media, were recorded.
(§10) Plasmodium falciparum strains were maintained in complete medium at 5% of hematocrit in continuous culture using a method adapted from Trager W. and Jensen J. B. (Human malaria parasites in continuous culture Science 193 (4254) (1976) 673-675) and Trager W. (Cultivation of malaria parasites Methods Cell Biol. 45 (1994) 7-26).
(§11) The parasitemia was calculated by counting the percentage of parasitized erythrocytes by optical microscopy. Thin films of blood were made every day from each culture flask, fixed with methanol and stained for 10 min. in Giemsa (Merck, cat ref.: 1.09204) at 10% in buffered water pH 7.2. The glass slides were observed and counted with an optical microscope (Nikon, Eclipse E200) equipped with a 100× immersion oil objective.
(§12) The culture was maintained at 5% of hematocrit, with a daily change of medium and was diluted when parasitemia had reached about 5%.
(§13) [^3H] Hypoxanthine incorporation assay was conducted using a method adapted from Desjardins R. E. et al. (Quantitative assessment of antimalarial activity in vitro by a semiautomated microdilution technique. Antimicrob. Agents Chemother., 16 (6) (1979) 710-718). The assays were performed in 96 wells flat bottom microplates.
(§14) 1. Serial dilutions of each test compound (25 μl of a 5× solution/well) were deposited in one row of assay microtiter plate. Compounds of this invention were tested in this assay. Chloroquine and Azithromycin were used as control compounds for each assay.
(§15) 2. […] 100 μl of the resulting suspension was distributed into each well of columns 1-11 of assay microtiter plate leading to a final volume of 125 μl per well, at 1.2% of hematocrit and 0.4% of parasitemia/well.
(§16) 3. In each plate, 2 columns were reserved for control wells: • Column 11 (comprising wells A11-H11): Positive control wells: Untreated PRBCs to compare with cultures treated with test compounds. • Column 12 (comprising wells A12-H12): • Background value wells: Uninfected RBCs—blank control to obtain the background reading from RBCs without parasites (at 1.2% of hematocrite value).
(§17) 4. The plates were incubated at 37° C. under low oxygen atmosphere. […]

For experiment [3], the system named is P. falciparum W2 (CDC/Indochina III, W-2). As to the kind of experiment: In vitro screening protocol I, [3H]-hypoxanthine incorporation, W2. The format is cell-based, Plasmodium falciparum. The note with it: In vitro screening protocol I, P. falciparum W2; for IC50: Plasmodium falciparum, read-out: IC50 W2. The procedure, abridged:
as §1

In experiment [4] the test system is Plasmodium falciparum strain 3D7A. As to the kind of experiment: In vitro screening protocol II, [3H] hypoxanthine incorporation IC50 assay, 3D7A. In kind it is cell-based. Conditions: P. falciparum 3D7A; for IC50: Plasmodium falciparum. The procedure:
as §2, §3, §4, §5, §6, §7, §8, §9, §10, §11, §12, §13, §14, §15, §16, §17

Experiment [5] deals with P. falciparum TM91C235. As to the kind of experiment: In vitro screening protocol I, [3H]-hypoxanthine incorporation, TM91C235. Conditions: In vitro screening protocol I, P. falciparum TM91C235; for IC50: Plasmodium falciparum, read-out: IC50 TM91C235. In kind it is cell-based, Plasmodium falciparum.
The subject of experiment [6] is Plasmodium cynomolgi. Conditions: rhesus monkey; cited from earlier work.
Experiment [7] concerns Plasmodium falciparum. Conditions: non-immune patients, as compared to controls; cited from earlier work.
Experiment [8] has as its system Plasmodium vivax. Conditions: non-immune patients, as compared to controls; cited from earlier work.
Experiment [9] relates to Plasmodium berghei. The note with it: cited from earlier work.
The test system of experiment [10] is Plasmodium yoelii nigeriensis. The note with it: cited from earlier work.

Here are results for eleven compounds from patent publication US20090105301A1, “9A-SUBSTITUTED AZALIDES FOR THE TREATMENT OF MALARIA” (priority 2006, published 2009).

Converted amounts (≈) assume the structure as drawn.

The term IC50 denotes the concentration at which inhibition is half-maximal. For the compound `CC[C@H]1OC(=O)[C@H](C)[C@@H](O[C@H]2C[C@@](C)(OC)[C@@H](O)[C@H](C)O2)[C@H](C)[C@@H](O[C@@H]2O[C@H](C)C[C@H](N(C)C)[C@H]2O)[C@](C)(O)C[C@@H](C)CN(CCCNCc2cccc3ccccc23)[C@H](C)[C@@H](O)[C@]1(C)O` [Example 8, 9a-{3-[(Naphtalen-1-yl-methyl)amino]propyl}-9-deoxo-9-dihydro-9a-aza-9a-homoerythromycin A], the IC50 is < 0.1 µg/mL in experiment [1]; < 0.1 µg/mL in experiment [2]; < 0.1 µg/mL in experiment [3]; 0.1 to 0.2 µg/mL (≈ 0.107 to 0.215 µM) in experiment [4]; < 0.1 µg/mL in [5].

As to `CC[C@H]1OC(=O)[C@H](C)[C@@H](O)[C@H](C)[C@@H](O[C@@H]2O[C@H](C)C[C@H](N(C)C)[C@H]2O)[C@](C)(O)C[C@@H](C)CN(CCCNCc2ccnc3ccccc23)[C@H](C)[C@@H](O)[C@]1(C)O` [Example 15, 9a-{3-[(Quinolin-4-yl-methyl)amino]propyl}-3-O-decladinosyl-9-deoxo-9-dihydro-9a-aza-9a-homoerythromycin A], in experiment [1], the “IC50 D6” value is recorded as “B (100 < X ≦ 200)”. The entries for the “IC50 W2” value in [2] and in experiment [3] were “C (200 < X ≦ 1000)” and “B (100 < X ≦ 200)”, respectively. Also, the “IC50 3D7A” value in [4] is reported as “C (200 < X ≦ 1000)”. Moreover, in experiment [5], the “IC50 TM91C235” value was “C (200 < X ≦ 1000)”.

In the case of `CCC1OC(=O)C(C)C(OC2CC(C)(OC)C(O)C(C)O2)C(C)C(OC2OC(C)CC(N(C)C)C2O)C(C)(O)CC(C)CN(CCCNC(=O)Cc2ccc(F)cc2)C(C)C(O)C1(C)O.O=CO` (stereo not shown) [Example 68, 9a-(3-{[(4-Fluorophenyl)acetyl]amino}propyl)-9-deoxo-9-dihydro-9a-aza-9a-homoerythromycin A Formiate Salt], the “IC50 W2” value in experiment [2] is “C (200 < X ≦ 1000)”. The “IC50 3D7A” value in experiment [4] is “F (2800 < X ≦ 3500)”.

On to `CCC1OC(=O)C(C)C(OC2CC(C)(OC)C(O)C(C)O2)C(C)C(OC2OC(C)CC(N(C)C)C2O)C(C)(O)CC(C)CN(CCCNC(=O)Cc2ccccc2F)C(C)C(O)C1(C)O.O=CO` (stereo not shown) [Example 69, 9a-(3-{[(2-Fluorophenyl)acetyl]amino}propyl)-9-deoxo-9-dihydro-9a-aza-9a-homoerythromycin A Formiate Salt], for which, in experiment [2], the “IC50 W2” value is “C (200 < X ≦ 1000)”. In addition, the “IC50 3D7A” value in experiment [4] is given as “G (3500 < X ≦ 5000)”.

Take `CC[C@H]1OC(=O)[C@H](C)[C@@H](O[C@H]2C[C@@](C)(OC)[C@@H](O)[C@H](C)O2)[C@H](C)[C@@H](O[C@@H]2O[C@H](C)C[C@H](N(C)C)[C@H]2O)[C@](C)(O)C[C@@H](C)CN(CCCNC(=O)CCc2ccc(F)cc2)[C@H](C)[C@@H](O)[C@]1(C)O.O=CO` [Example 70, 9a-(3-{[3-(4-Fluorophenyl)propanoyl]amino}propyl)-9-deoxo-9-dihydro-9a-aza-9a-homoerythromycin A Formiate Salt]: the “IC50 W2” value in [2] is on record as “C (200 < X ≦ 1000)”. Further, the “IC50 3D7A” value in experiment [4] was “D (1000 < X ≦ 2500)”.

As for `CC[C@H]1OC(=O)[C@H](C)[C@@H](O[C@H]2C[C@@](C)(OC)[C@@H](O)[C@H](C)O2)[C@H](C)[C@@H](O[C@@H]2O[C@H](C)C[C@H](N(C)C)[C@H]2O)[C@](C)(O)C[C@@H](C)CN(CCCNC(=O)/C=C/c2cnc3ccccc3c2)[C@H](C)[C@@H](O)[C@]1(C)O` [Example 76, 9a-(3-{[(2E)-3-(Quinolin-3-yl)-2-propenoyl]amino}propyl)-9-deoxo-9-dihydro-9a-aza-9a-homoerythromycin A], the IC50 in [2] and in [4] was 0.2 to 1 µg/mL (≈ 0.205 to 1.03 µM) throughout.

Regarding `CC(=O)O.CC(=O)O.CC(=O)O.CCC1OC(=O)C(C)C(OC2CC(C)(OC)C(O)C(C)O2)C(C)C(OC2OC(C)CC(N(C)C)C2O)C(C)(O)CC(C)CN(CCCNc2ccnc3cc(Cl)ccc23)C(C)C(O)C1(C)O` (stereo not shown) [Example 77], the “IC50 W2” value in [2] was “A (X ≦ 100)”. Also, in experiment [4], the “IC50 3D7A” value is reported as “A (X ≦ 100)”.

With `CC(=O)O.CC(=O)O.CCC1OC(=O)C(C)C(OC2CC(C)(OC)C(O)C(C)O2)C(C)C(OC2OC(C)CC(N(C)C)C2O)C(C)(O)CC(C)CN(CCCNCc2ccnc3ccccc23)C(C)C(O)C1(C)O` (stereo not shown) [Example 78, 9a-{3-[(Quinolin-4-yl-methyl)amino]propyl}-9-deoxo-9-dihydro-9a-aza-9a-homoerythromycin A Diacetate Salt], in experiment [2], the “IC50 W2” value was “A (X ≦ 100)”. The “IC50 3D7A” value in experiment [4] is “C (200 < X ≦ 1000)”.

Consider `CC(=O)O.CC(=O)O.CC(=O)O.CCC1OC(=O)C(C)C(O)C(C)C(OC2OC(C)CC(N(C)C)C2O)C(C)(O)CC(C)CN(CCCNc2ccnc3cc(Cl)ccc23)C(C)C(O)C1(C)O` (stereo not shown) [Example 79], for which the “IC50 W2” value in [2] is “A (X ≦ 100)”. In [4], the “IC50 3D7A” value is listed as “A (X ≦ 100)”.

As for `CC[C@H]1OC(=O)[C@H](C)[C@@H](O[C@H]2C[C@@](C)(OC)[C@@H](O)[C@H](C)O2)[C@H](C)[C@@H](O[C@@H]2O[C@H](C)C[C@H](N(C)C)[C@H]2O)[C@](C)(O)C[C@@H](C)CN(C)[C@H](C)[C@@H](O)[C@]1(C)O` [azithromycin, reference compound], the IC50 in [1] lay within 1 to 2.5 µg/mL (≈ 1.34 to 3.34 µM); in [2] it was 2.5 to 2.8 µg/mL (≈ 3.34 to 3.74 µM); in [3] it was 2.8 to 3.5 µg/mL (≈ 3.74 to 4.67 µM); in [5], 3.5 to 5 µg/mL (≈ 4.67 to 6.68 µM). For the same compound, in experiment [6], the “efficacy in monkey model” value is recorded as “active”. Also, the prophylactic efficacy in experiment [7] is recorded as 71.6%; in experiment [8], 98.9%.

As to midecamycinin, the “activity in mouse model” value in [9] and in [10] was “active” in each case. In addition, the “efficacy in monkey model” value in experiment [6] is reported as “no efficacy”.
